Results: patent publication US11224601B1, “Compounds that inhibits MCL-1 protein” (priority 2017, dated 2022)
Where two headings read alike, the source gives them in different places.

How the values were obtained:
[1] = test system: OPM-2 human multiple myeloma cell line; experiment: Cell Viability Assay (OPM-2 10 FBS), CellTiter-Glo; type: cell-based; conditions: Homo sapiens, OPM-2, 16 h
Description: Cell Viability Assay (OPM-2 10 FBS)
The human multiple myeloma cell line, OPM-2, was cultured in complete growth medium containing RPMI 1640 and 10% fetal bovine serum (FBS). Cells were seeded into 384-well plates at 3000 cells/well density in complete growth medium containing 10% FBS, and incubated for 16 h with serially diluted test compounds in a 37° C. incubator with 5% CO2. Cell viability was tested using CellTiter-Glo® assay (Promega, Madison, Wis.) according to the manufacturer recommendations. Luminescence was determined using an EnVision® Multilabel plate reader 25 min after the addition of detection reagent. IC50 values were then calculated with Xlfit using a logistical 4-parameter fit model in GraphPad Prism (GraphPad Software, San Diego, Calif.) or in Genedata Screener® (Genedata, Basel, Switzerland).

OPM-2 Luc cells = experiment: Tumor Pharmacodynamics (PD) model; type: in vivo; conditions: dosed orally to female athymic nude mice inoculated with OPM-2 Luc cells; compared with Reference Compound 1
Source text: Tumor Pharmacodynamics (PD)
FIGS. 1-7 illustrate the PD results of the cited Examples. The Reference Compound 1, an internal Amgen MC1-1 inhibitor compound made by one of the general schemes outlined in U.S. Pat. No. 9,562,061, herein incorporated by reference, is (1S,3′R,6′R,7′S,8′E,12′R)-6-chloro-12′-ethyl-7′-methoxy-3,4-dihydro-2H,15′H-spiro[naphthalene-1,22′-[20]oxa[13]thia[1,14]diazatetracyclo[14.7.2.0˜3,6˜.0˜19,24˜]pentacosa[8,16,18,24]tetraen]-15′-one 13′,13′-dioxide

[2] = target: recombinant human Mcl-1 (Mcl-1/Bim interaction) (Homo sapiens (Human), UniProt Q07820); experiment: biochemical; type: binding; conditions: cell free Mcl-1:Bim TR-FRET
Description: Cell free Mcl-1:Bim Affinity Assay (Mcl-1 HTRF)
The inhibition of the Mcl-1/Bim interaction was measured using a time-resolved fluorescence resonance energy transfer (TR-FRET) assay. The recombinant human Mcl-1 (C-terminally 6×His tagged Mcl-1 containing residues 171-327) was generated at Amgen Inc (Thousand Oaks, Calif.). A biotinylated peptide derived from human Bim (residues 51-76) was purchased from CPC Scientific (San Jose, Calif.). The TR-FRET assay was conducted in a 384-well white OptiPlate™ (PerkinElmer, Waltham, Mass.) in a total volume of 40 μL. The reaction mixture contained 0.1 nM Mcl-1(171-327), 0.05 nM biotin-Bim(51-76), 0.05 nM LANCE® Eu-W1024 Anti-6×His (PerkinElmer), 0.072 nM Streptavidin-Xlent (Cisbio, Bedford, Mass.), and serially diluted test compounds in the binding buffer of 20 mM Hepes, pH 7.5, 150 mM NaCl, 0.016 mM Brij® 35, and 1 mM dithiothreitol. Test compounds were pre-incubated with Mcl-1(171-327) and biotin-Bim (51-76) for 60 min before addition of the detection mixture (LANCE® Eu-W1024 Anti-6×His and Streptavidin-Xlent). The reaction plates were further incubated overnight and then were read on an Envision® multimode reader (PerkinElmer). Fluorescence signals were measured at 620 nm (40-nm bandwidth) and 665 nm (7.5-nm bandwidth) with a 60 μs delay after excitation at 320 nm (75-nm bandwidth). The signal ratio at 665/620 nm corresponded to the Mcl-1/Bim interaction and was used in all data analyses. The IC50 values of test compounds were determined from duplicate data by analyzing competition curves using a four-parameter sigmoidal model in GraphPad Prism (GraphPad Software, San Diego, Calif.) or in Genedata Screener® (Genedata, Basel, Switzerland).

[3] = read-out: OPM-2 10% FBS IC50 IP (μM), OPM-2 cells, 10% FBS, 16 h, CellTiter-Glo
[4] = read-out: OPM-2 10% FBS IC50 IP, OPM-2 cells, 10% FBS, 16 h, CellTiter-Glo

recombinant human Mcl-1 (Mcl-1/Bim interaction), sequence (Q07820 171-327): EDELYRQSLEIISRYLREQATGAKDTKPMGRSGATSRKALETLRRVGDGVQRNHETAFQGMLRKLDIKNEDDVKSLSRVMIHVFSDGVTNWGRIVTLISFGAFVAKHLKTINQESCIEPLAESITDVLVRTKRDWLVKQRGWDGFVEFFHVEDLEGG

Structure (SMILES): CO[C@]1(CN2CCN(C3COC3)CC2)/C=C/C[C@H](C)[C@@H](C)S(=O)(=O)NC(=O)c2ccc3c(c2)N(C[C@@H]2CC[C@H]21)C[C@@]1(CCCc2cc(Cl)ccc21)CO3 [Example 3, (1S,3′R,6′R,7′R,8′E,11′S,12′R)-6-chloro-7′-methoxy-11′,12′-dimethyl-7′-((4-(3-oxetanyl)-1-piperazinyl)methyl)-3,4-dihydro-2H,15′H-spiro[naphthalene-1,22′-[20]oxa[13]thia[1,14]diazatetracyclo[14.7.2.0˜3,6˜.0˜19,24˜]pentacosa[8,16,18,24]tetraen]-15′-one 13′,13′-dioxide]
- IC50 [1, 3]: 0.06 µM
- in vivo efficacy in a tumor PD model relative to Reference Compound 1 (OPM-2 Luc cells): superior in vivo efficacy

Structure (SMILES): CCO[C@]1(CN2CCN3CCOC[C@@H]3C2)/C=C/C[C@H](C)[C@@H](C)S(=O)(=O)NC(=O)c2ccc3c(c2)N(C[C@@H]2CC[C@H]21)C[C@@]1(CCCc2cc(Cl)ccc21)CO3 [Example 1, (1S,3′R,6′R,7′R,8′E,11′S,12′R)-6-chloro-7′-ethoxy-7′-((9aS)-hexahydropyrazino[2,1-c][1,4]oxazin-8(1H)-ylmethyl)-11′,12′-dimethyl-3,4-dihydro-2H,15′H-spiro[naphthalene-1,22′-[20]oxa[13]thia[1,14]diazatetracyclo[14.7.2.0˜3,6˜.0˜19,24˜]pentacosa[8,16,18,24]tetraen]-15′-one 13′,13′-dioxide]
- IC50 [1, 3]: 0.085 µM
- in vivo efficacy in a tumor PD model relative to Reference Compound 1 (OPM-2 Luc cells): superior in vivo efficacy

Structure (SMILES): CO[C@@]1(C#CCCN2CCS(=O)(=O)CC2)/C=C/C[C@H](C)[C@@H](C)S(=O)(=O)NC(=O)c2ccc3c(c2)N(C[C@@H]2CC[C@H]21)C[C@@]1(CCCc2cc(Cl)ccc21)CO3 [Example 100456, (1S,3′R,6′R,7′S,8′E,11′S,12′R)-6-chloro-7′-(4-(1,1-dioxido-4-thiomorpholinyl)-1-butyn-1-yl)-7′-methoxy-11′,12′-dimethyl-3,4-dihydro-2H,15′H-spiro[naphthalene-1,22′-[20]oxa[13]thia[1,14]diazatetracyclo [14.7.2.0~3,6~.0~19,24~]pentacosa[8,16,18,24]tetraen]-15′-one 13′,13′-dioxide]
- IC50 [1, 4]: 1.23 µM
- IC50 ([2]; read-out: Mel-1 HTRF IC50): 0.565 nM

Structure (SMILES): CCO[C@]1(CN2CCN3CCOC[C@@H]3C2)CCC[C@H](C)[C@@H](CCOC)S(=O)(=O)NC(=O)c2ccc3c(c2)N(C[C@@H]2CC[C@H]21)C[C@@]1(CCCc2ccccc21)CO3 [Example 517, (1S,3′R,6′R,7′R,11′S,12′R)-7′-ethoxy-7′-((9aS)-hexahydropyrazino[2,1-c][1,4]oxazin-8(1H)-ylmethyl)-12′-(2-methoxyethyl)-11′-methyl-3,4-dihydro-2H,15′H-spiro[naphthalene-1,22′-[20]oxa[13]thia[1,14]diazatetracyclo[14.7.2.0˜3,6˜.0˜19,24˜]pentacosa[16,18,24]trien]-15′-one 13′,13′-dioxide]
- IC50 [1, 3]: 0.252 µM
- IC50 ([2]; read-out: Mcl-1 HTRF IC50): 0.259 nM

Structure (SMILES): C[C@@H]1[C@@H](C)C/C=C/[C@@](O)(CN2CCN3CCOC[C@@H]3C2)[C@@H]2CC[C@H]2CN2C[C@@]3(CCCc4cc(Cl)ccc43)COc3ccc(cc32)C(=O)NS1(=O)=O [Example 193, (1S,3′R,6′R,7′S,8′E,11′S,12′R)-6-chloro-7′-((9aS)-hexahydropyrazino[2,1-c][1,4]oxazin-8(1H)-ylmethyl)-7′-hydroxy-11′,12′-dimethyl-3,4-dihydro-2H,15′H-spiro[naphthalene-1,22′-[20]oxa[13]thia[1,14]diazatetracyclo[14.7.2.0˜3,6˜.0˜19,24˜]pentacosa[8,16,18,24]tetraen]-15′-one 13′,13′-dioxide]
- IC50 [1, 3]: 0.023 µM
- IC50 ([2]; read-out: Mcl-1 HTRF IC50): 0.096 nM

Structure (SMILES): CO[C@]1(CN2CCN3CCOC[C@@H]3C2)/C=C/C[C@H](C)[C@@H](C)S(=O)(=O)NC(=O)c2ccc3c(c2)N(C[C@@H]2CC[C@H]21)C[C@@]1(CCCc2cc(Cl)ccc21)CO3 [Example 4, (1S,3′R,6′R,7′R,8′E,11′S,12′R)-6-chloro-7′-((9aS)-hexahydropyrazino[2,1-c][1,4]oxazin-8(1H)-ylmethyl)-7′-methoxy-11′,12′-dimethyl-3,4-dihydro-2H,15′H-spiro[naphthalene-1,22′-[20]oxa[13]thia[1,14]diazatetracyclo[14.7.2.0˜3,6˜.0˜19,24˜]pentacosa[8,16,18,24]tetraen]-15′-one 13′,13′-dioxide]
- IC50 [1, 3]: 0.094 µM
- in vivo efficacy in a tumor PD model relative to Reference Compound 1 (OPM-2 Luc cells): superior in vivo efficacy

Structure (SMILES): C[C@@H]1[C@@H](C)C/C=C/[C@](O)(CN2CCN3CCOC[C@@H]3C2)[C@@H]2CC[C@H]2CN2C[C@@]3(CCCc4cc(Cl)ccc43)COc3ccc(cc32)C(=O)NS1(=O)=O [Example 213, (1S,3′R,6′R,7′R,8′E,11′S,12′R)-6-chloro-7′-((9aS)-hexahydropyrazino[2,1-c][1,4]oxazin-8(1H)-ylmethyl)-7′-hydroxy-11′,12′-dimethyl-3,4-dihydro-2H,15′H-spiro[naphthalene-1,22′-[20]oxa[13]thia[1,14]diazatetracyclo[14.7.2.0˜3,6˜.0˜19,24˜]pentacosa[8,16,18,24]tetraen]-15′-one 13′,13′-dioxide]
- IC50 [1, 3]: 0.4 µM
- IC50 ([2]; read-out: Mcl-1 HTRF IC50): 0.239 nM

Structure (SMILES): CO[C@@]1(CN2CCN3CCCC[C@@H]3C2)/C=C/C[C@H](C)[C@@H](Cc2ccccc2)S(=O)(=O)NC(=O)c2ccc3c(c2)N(C[C@@H]2CC[C@H]21)C[C@@]1(CCCc2cc(Cl)ccc21)CO3 (single isomer, unassigned) [Example 104]
- IC50 [1, 3]: 0.782 µM
- IC50 ([2]; read-out: Mcl-1 HTRF IC50): 1.12 nM

Structure (SMILES): CCO[C@]1(CN2CCN(C(C)C)[C@H](C)C2)/C=C/C[C@H](C)[C@@H](C)S(=O)(=O)NC(=O)c2ccc3c(c2)N(C[C@@H]2CC[C@H]21)C[C@@]1(CCCc2cc(Cl)ccc21)CO3 [Example 9, (1S,3′R,6′R,7′R,8′E,11′S,12′R)-6-chloro-7′-ethoxy-11′,12′-dimethyl-7′-(((3R)-3-methyl-4-(1-methylethyl)-1-piperazinyl)methyl)-3,4-dihydro-2H,15′H-spiro[naphthalene-1,22′-[20]oxa[13]thia[1,14]diazatetracyclo[14.7.2.0˜3,6˜.0˜19,24˜]pentacosa[8,16,18,24]tetraen]-15′-one 13′,13′-dioxide]
- IC50 [1, 3]: 0.05 µM
- IC50 ([2]; read-out: Mcl-1 HTRF IC50): 0.078 nM

Structure (SMILES): CO[C@@]1(CN2CCN3CCOC[C@@H]3C2)/C=C/C[C@H](C)[C@H]2CCN(C(=O)c3ccc4c(c3)N(C[C@@H]3CC[C@H]31)C[C@@]1(CCCc3cc(Cl)ccc31)CO4)S2(=O)=O [Example 364, (1S,3′R,6′R,7′S,8′E,11′S,12′R)-6-chloro-7′-((9aS)-hexahydropyrazino[2,1-c][1,4]oxazin-8(1H)-ylmethyl)-7′-methoxy-11′-methyl-3,4-dihydro-2H,16′H-spiro[naphthalene-1,23′-[21]oxa[27]thia[1,15]diazapentacyclo[15.7.2.1˜12,15˜.0˜3,6˜.0˜20,25˜]heptacosa[8,17,19,25]tetraen]-16′-one 27′,27′-dioxide]
- IC50 [1, 3]: > 33.3 µM
- IC50 ([2]; read-out: Mcl-1 HTRF IC50): 192 nM

Structure (SMILES): CO[C@@]1(CC(=O)NC[C@@H](O)C(F)(F)F)/C=C/C[C@H](C)[C@@H](C)S(=O)(=O)NC(=O)c2ccc3c(c2)N(C[C@@H]2CC[C@H]21)C[C@@]1(CCCc2cc(Cl)ccc21)CO3.CO[C@@]1(CC(=O)NC[C@H](O)C(F)(F)F)/C=C/C[C@H](C)[C@@H](C)S(=O)(=O)NC(=O)c2ccc3c(c2)N(C[C@@H]2CC[C@H]21)C[C@@]1(CCCc2cc(Cl)ccc21)CO3 [Example 100563]
- IC50 [1, 4]: 0.51 µM
- IC50 ([2]; read-out: Mel-1 HTRF IC50): 0.065 nM

Structure (SMILES): CO[C@@]1(CN2CCN3CCC[C@@H]3C2)/C=C/C[C@H](C)[C@@H](C)S(=O)(=O)NC(=O)c2ccc3c(c2)N(C[C@@H]2CC[C@H]21)C[C@@]1(CCCc2cc(Cl)ccc21)CO3 (stereo in doubt) [Example 80]
- IC50 [1, 3]: 0.205 µM
- IC50 ([2]; read-out: Mcl-1 HTRF IC50): 1.55 nM

Structure (SMILES): CCO[C@]1(CN2CCN(C(C)C)[C@H](C)C2)/C=C/C[C@H](C)[C@@H](CCOC)S(=O)(=O)NC(=O)c2ccc3c(c2)N(C[C@@H]2CC[C@H]21)C[C@@]1(CCCc2cc(Cl)ccc21)CO3 [Example 17, (1S,3′R,6′R,7′R,8′E,11′S,12′R)-6-chloro-7′-ethoxy-12′-(2-methoxyethyl)-11′-methyl-7′-(((3R)-3-methyl-4-(1-methylethyl)-1-piperazinyl)methyl)-3,4-dihydro-2H,15′H-spiro[naphthalene-1,22′-[20]oxa[13]thia[1,14]diazatetracyclo[14.7.2.0˜3,6˜.0˜19,24˜]pentacosa[8,16,18,24]tetraen]-15′-one 13′,13′-dioxide]
- IC50 [1, 3]: 0.034 µM
- IC50 ([2]; read-out: Mcl-1 HTRF IC50): 0.073 nM
